Data reported in patent US11571420B2 (priority 2018, dated 2023).

Molecular target: hADORA1/CHO (hA1 expressing) cells (Homo sapiens (Human), UniProt P30542)
Assay: FLIPR calcium inhibition assay in hADORA1/CHO (hA1 expressing) cells, 10 M adenosine
Assay type: cell-based
Conditions: read-out: cAMP & FLIPR IC50 (nM) hA1
Experimental: hADORA1/CHO (hA1 expressing) cells (Genscript) were plated at 1×10^4 cells/well into 384-well polystyrene plates one day before starting the experiment. On the day of experiment, the supernatant was discard and replaced with 40 μL of dye (FLIPR calcium 5 Assay Kit) per well and the plates were incubated for 60 mins at 37° C. plus 5% CO2. Then testing compounds were added at different concentrations for FLIPR™ inhibition assay. After a 400 s incubation with compound, […] adenosine was added into the cells, and the signal was captured by FLIPR.

hADORA1/CHO (hA1 expressing) cells, sequence (P30542 whole entry): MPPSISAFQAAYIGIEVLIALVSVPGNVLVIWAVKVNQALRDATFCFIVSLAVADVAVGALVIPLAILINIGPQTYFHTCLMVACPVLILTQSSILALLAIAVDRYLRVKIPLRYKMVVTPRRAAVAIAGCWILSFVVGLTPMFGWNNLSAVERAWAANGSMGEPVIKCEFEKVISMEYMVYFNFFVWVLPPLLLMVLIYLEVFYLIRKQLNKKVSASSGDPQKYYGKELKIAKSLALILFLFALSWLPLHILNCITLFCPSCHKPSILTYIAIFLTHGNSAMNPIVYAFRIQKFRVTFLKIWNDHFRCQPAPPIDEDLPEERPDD

Work on `Cc1cnc2ccc(-c3nc(C(=O)NCC4CCCCN4C)c(N)nc3-c3ncco3)cn12` (single isomer, unassigned; isomer 2) [Example 125, 3-amino-6-(3-methylimidazo[1,2-a]pyridin-6-yl)-N-((1-methylpiperidin-2-yl)methyl)-5-(oxazol-2-yl)pyrazine-2-carboxamide (isomer 2)] yielded an IC50 of 10000 nM.
